Data taken from patent publication US9567347B2, “Use of small molecule inhibitors targeting the interaction between RAC GTPase and p67(phox)” (CHILDREN'S HOSPITAL MEDICAL CENTER, priority 2012, dated 2017).
“Also recorded” adds a separate entry of the source.

Legend:
reconstituted NOX2 = target: T1, reconstituted NOX2 (Homo sapiens, UniProt P19878); experiment: cell-free superoxide production assay; type: biochemical; settings: reconstitution conditions, FIG. 7
T1 sequence (P19878 1-526): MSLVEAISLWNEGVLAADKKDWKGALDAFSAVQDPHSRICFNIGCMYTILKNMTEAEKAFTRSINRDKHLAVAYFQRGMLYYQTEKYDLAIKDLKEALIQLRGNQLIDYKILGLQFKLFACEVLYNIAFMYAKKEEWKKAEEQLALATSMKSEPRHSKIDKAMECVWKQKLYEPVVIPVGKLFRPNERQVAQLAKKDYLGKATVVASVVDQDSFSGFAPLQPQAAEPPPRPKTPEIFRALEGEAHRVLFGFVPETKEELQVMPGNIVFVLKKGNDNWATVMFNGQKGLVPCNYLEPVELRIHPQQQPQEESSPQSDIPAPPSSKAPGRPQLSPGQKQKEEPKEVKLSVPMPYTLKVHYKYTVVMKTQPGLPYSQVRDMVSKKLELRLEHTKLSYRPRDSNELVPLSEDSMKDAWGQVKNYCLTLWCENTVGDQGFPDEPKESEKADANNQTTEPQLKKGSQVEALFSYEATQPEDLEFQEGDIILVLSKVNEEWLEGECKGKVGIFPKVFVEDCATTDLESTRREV
Experimental: In order to complement the in silico and cellular results, Phox-I1 and Phox-I2 were tested in cell-free superoxide production assays. Phox-I2 was added to p67 phox (50 nM) in a total volume of 200 μl, and incubated for 30 min at room temperature. A mixture of solubilized macrophage membrane (5 nM cytochrome b 558 heme), p47 phox (50 nM), and Rac1 GMPPNP (nonprenylated) (50 nm), were added. Lithium dodecyl sulfate (LiDS) was added at 130 μM and incubated for 90 sec at room temperature. NADPH was then added (238 μM) and superoxide production measured. In this system, a turnover of 58.88 mol superoxide/sec/mol cytochrome b558 heme was measured. The results were calculated by taking superoxide production in the absence of Phox-I2 as 100% and values obtained with Phox-I2 were expressed as % inhibition. The mean data represent those from six separate experiments.

p67^phox mutation, R188A = target: T2, p67^phox mutation, R188A (Homo sapiens, UniProt P19878, R188A); experiment: microscale thermophoresis binding to p67phox R188A mutant; settings: residue outside region critical for Rac1-GTP interaction
T2 construct: using the pET30-HIS p67(1-212) plasmid; His; made in house; host or cells: E. coli BL21(DE3)
T2 sequence (P19878 1-212 R188A): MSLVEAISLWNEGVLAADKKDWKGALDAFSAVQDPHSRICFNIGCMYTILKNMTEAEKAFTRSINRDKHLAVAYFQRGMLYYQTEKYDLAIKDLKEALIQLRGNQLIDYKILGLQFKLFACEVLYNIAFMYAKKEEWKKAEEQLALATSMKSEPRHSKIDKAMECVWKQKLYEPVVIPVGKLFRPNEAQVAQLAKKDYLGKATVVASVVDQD
Experimental: (§1) The p67^phox protein was expressed in BL21(DE3) bacteria (Stratagene) using the pET30-HIS p67(1-212) plasmid. Protein was purified using the QIAexpress Ni-NTA kit (Qiagen) or the GST Bind Resin Chromatography Kit (Novagen) for RacV12 and RacWT proteins. Mutagenesis was carried out using the Quick Change Lightening Site Directed Mutagenesis Kit (Stratagene).
(§2) Proteins were labeled for microscale thermophoresis using the Monolith NT Protein Labeling Kit Red (Nano Temper Technologies) as recommended by the manufacturer. Binding reactions were carried out using the Monolith NT. 115 (Nano Temper Technologies). Binding data was analyzed using Graphpad Prizm to estimate Kd values. The arbitrary fluorescence value from the thermophoresis plots for the smallest compound titration was subtracted from every other data point (Delta depletion) prior to normalization to a Vmax of 100. In thermophoresis plots where there was no binding, a curve could not be fit and therefore no Vmax could be assigned. In these instances the highest delta depletion value was set to 100 and all data were normalized accordingly.
(§3) Next, to perform a competition binding, p67^phox protein was first incubated with either 5 μM Phox-I1 or an equal volume of vehicle control for 15 min prior to titration of purified Rac1V12 protein. […]

Rac1V12 protein = target: T3, Rac1V12 protein (Homo sapiens, UniProt P63000, G12V); experiment: microscale thermophoresis binding to Rac1V12; settings: various concentrations
T3 construct: GST; made in house
Experimental: as §1, §2, §3

binding to p67^phox R188 mutant (p67^phox mutation, R188A) | Compound | Rac1-GMPPNP induced superoxide burst (reconstituted NOX2) | binding to Rac1V12 (Rac1V12 protein)
– | O=[N+]([O-])c1cccc(C2Nc3ccc([N+](=O)[O-])cc3C3C=CCC32)c1 (stereo not drawn) [Phox-I2] | dose-dependent inhibition; also recorded: dose-dependently inhibit | –
retained the binding activity | COc1ccc2c(c1)C1C=C(c3ccccc3)NN1C(c1cccc([N+](=O)[O-])c1)O2 (stereo not drawn) [Phox-I1] | – | unable to bind; also recorded: no detectable binding
